Counter-ions that a name gives are not always drawn. Like-named read-outs stand apart in the source and are kept apart here.

Assay [1] deals with palatine mucosa of frog. Description: Ciliary movement of frog palatine mucosa, particle transport method (Example 3, Tables 1-3). The class given is cell-based, bull frog. The following applies: for activation at 100 µg/mL / activation at 10 µg/mL: control = 0. The protocol:
Bull frogs (furnished by Saitama Test Animal) weighing 300 to 450 g were used regardless of sex.
N-acetylneuraminic acid and calcium salt of N-acetylneuraminic acid (provided by Kanto Ishiseiyaku Kabushiki Kaisha), as well as acetylcholine chloride (furnished by Sigma Kabushiki Kaisha) were used as the test substances.
(§1) Mucociliary transport was measured by the particle transport method. After decapitation of a frog, the surface of the palatine mucosa was separated with minimized damage and of fixed to a cork plate in a Petri dish which was then filled with 20 ml of Ringer's solution (trishydrochloric acid). The palatine mucosa was left in this state for 30 minutes before the commencement of measurement. For measurement, the Ringer's solution was removed and fine pieces of cork (capable of passing pharmaceutical sieve No. 5 but not capable of passing No. 6) were placed on the surface of the palatine mucosa, and the time (in seconds) required for the cork piece to move 1 cm was measured. The duration of movement, i.e., moving speed, was measured also in the state immediately after the removal of the Ringer's solution or pharmaceutical solution.

The subject of assay [2] is palatine mucosa of frog. Nature of the assay: Mucociliary transport of frog palatine mucosa (Example 8, Table 6). Format: cell-based. The settings on record: mean ± SD, over 20.0% significant, read-out: Acceleration (mucociliary transport); for activation at 100 µg/mL: 10^-1 mg/ml; for activation at 10 µg/mL: 10^-2 mg/ml; for activation at 1 µg/mL: 10^-3 mg/ml; for activation at 0.1 µg/mL: 10^-4 mg/ml. The procedure:
as §1

The subject of assay [3] is ciliated cells from human airway and frog palate. Description: Rotation of ciliated cell groups (Example 4). Format: cell-based. The source says: Using ciliated cells from human airway and frog palate, rotation of cell groups due to ciliary beat was observed before and after application of N-acetylneuraminic acid and calcium salt of N-acetylneuraminic acid, in order to confirm the effect of these agents on the cilitated cells.
(§2) Human ciliated cells were collected from a normal trachea by means of a branchoscope, the ciliated cells being separated by rubbing the bronchus while observing through the branchoscope, while the collection of frog cilitated cells was conducted by rubbing the palatine mucosta, without being specially careful. […] The groups of cells were transferred to a cover slip and one drop of chicken plasma (prepared by Difco Company) and one drop of 50% chicken embryo extract were added to the cells, thus forming clots. The rotary motion in the clots was recorded by means of a video recorder and the number of rotations per minute was measured.

Assay [4] concerns ciliated cell. Nature of the assay: Rotating ciliated explant (Example 9, Table 7). The class given is cell-based. The following applies: for activation at 10 µg/mL: 10^-2 mg/ml (terbutaline 1-^-2 [sic]); for activation at 10 µg/mL / activation at 1 µg/mL / activation at 0.1 µg/mL: mean ± SD, > 20.0 significant, read-out: Acceleration (rotating ciliated explant); for activation at 1 µg/mL: 10^-3 mg/ml; for activation at 0.1 µg/mL: 10^-4 mg/ml. The protocol: as §2, with “measured. The agents were dissolved in the Medium 199 and were injected through a tube attached to a rose chamber. The state of rotary motion 5 minutes, 10 minutes and 15 minutes after the injection were recorded by means of a video recorder, and the number of revolutions was measured.” for “measured.”
A test was conducted to examine the above-mentioned effect by using sodium salt of N-Acetylneuraminic Acid, in accordance with the same testing method as that of Example 2.

For `CC(=O)OCC[N+](C)(C)C.[Cl-]` [acetylcholine, acetylcholine chloride, reference compound], the Movement in assay [1] (10^-4 g/ml, frog number 1) worked out at 21.0 s/cm; in assay [1] (10^-4 g/ml, frog number 2), 21.7 s/cm; in assay [1] (10^-4 g/ml, frog number 3), 20.7 s/cm; in assay [1] (10^-5 g/ml, frog number 1), 27.0 s/cm; in assay [1] (10^-5 g/ml, frog number 2), 29.7 s/cm; in assay [1] (10^-5 g/ml, frog number 3), 26.3 s/cm. The activation at 100 µg/mL in assay [1] (read-out: Acceleration, 10^-4 g/ml, frog number 1) came out at 53.3%; in assay [1] (read-out: Acceleration, 10^-4 g/ml, frog number 2) it was 41.4%; in assay [1] (read-out: Acceleration, 10^-4 g/ml, frog number 3), 47.3%; in assay [2] (5 min, 5 min after applied), 22.8 ± 26.1%; in assay [2] (10 min, 10 min after applied), 31 ± 24.9%; in assay [2] (0.25 h, 15 min after applied), 30.5 ± 19.5%. The activation at 10 µg/mL in assay [1] (read-out: Acceleration, 10^-5 g/ml, frog number 1) came out at 40%; in assay [1] (read-out: Acceleration, 10^-5 g/ml, frog number 2), 19.7%; in assay [1] (read-out: Acceleration, 10^-5 g/ml, frog number 3), 33.1%; in assay [2] (5 min, 5 min after applied), 17.5 ± 14.3%; in assay [2] (10 min, 10 min after applied), 18.8 ± 21.1%; in assay [2] (0.25 h, 15 min after applied), 24.9 ± 25.6%. Further, the activation at 10 µg/mL was found to be 58.1 ± 38.1% in assay [4] (5 min, 5 min after perfusion); 52 ± 32.6% in assay [4] (10 min, 10 min after perfusion); 44.5 ± 22% in assay [4] (0.25 h, 15 min after perfusion). Moreover, the activation at 1 µg/mL in assay [2] (5 min, 5 min after applied) worked out at 12.3 ± 8.5%; in assay [2] (10 min, 10 min after applied) it was 19.9 ± 16.8%; in assay [2] (0.25 h, 15 min after applied) it was 13.9 ± 20.5%; in assay [4] (5 min, 5 min after perfusion), 27.8 ± 12.2%; in assay [4] (10 min, 10 min after perfusion), 10.6 ± 15%; in assay [4] (0.25 h, 15 min after perfusion), 20.8 ± 26.4%. For the same molecule, the activation at 0.1 µg/mL was 3 ± 7.6% in assay [2] (5 min, 5 min after applied); 3.8 ± 15.5% in assay [2] (10 min, 10 min after applied); -5.5 ± 10% in assay [2] (0.25 h, 15 min after applied); -1.7% in assay [4] (5 min, 5 min after perfusion); 0.8% in assay [4] (10 min, 10 min after perfusion); 14.6% in assay [4] (0.25 h, 15 min after perfusion). The results for the “Time of speed peak of rotary motion after application” value in assay [3] (3×10^-3 mg/ml) and in assay [3] (10^-3 mg/ml) were approximately 5 min and “about 10 minutes”, respectively. Besides, in assay [3] (10^-3 mg/ml and 3×10^-3 mg/ml), the “Effect on speed of rotary motion of the cilium cells” value is listed as “the speed of rotary motion of the cilium cells is increased”. Also, the “Time after application at which rotary motion stopped” value in assay [3] (10^-3 and 3×10^-3 mg/ml, both cases) was 13 min. Further, the Effect on rotation result in assay [4] (between 10^-3 and 10^-2 mg/ml) is on record as “increase in the rotation in a certan dependency on the dose”.

With `CC(=O)N[C@H]1[C@H]([C@H](O)[C@H](O)CO)OC(O)(C(=O)O)C[C@@H]1O` (stereo partly shown) [calcium salt of N-acetylneuraminic acid], the Movement in assay [1] (10^-4 g/ml, frog number 1) worked out at 23.0 s/cm; in assay [1] (10^-4 g/ml, frog number 2) it was 29.0 s/cm; in assay [1] (10^-4 g/ml, frog number 3) it was 19.7 s/cm; in assay [1] (10^-5 g/ml, frog number 1), 25.0 s/cm; in assay [1] (10^-5 g/ml, frog number 2), 29.3 s/cm; in assay [1] (10^-5 g/ml, frog number 3) it was 24.3 s/cm. Further, the activation at 100 µg/mL in assay [1] (10^-4 g/ml, frog number 1, read-out: Acceleration) came out at 39%; in assay [1] (10^-4 g/ml, frog number 2, read-out: Acceleration), 28.7%; in assay [1] (10^-4 g/ml, frog number 3, read-out: Acceleration), 46.8%. The activation at 10 µg/mL in assay [1] (10^-5 g/ml, frog number 1, read-out: Acceleration) worked out at 33.7%; in assay [1] (10^-5 g/ml, frog number 2, read-out: Acceleration), 28%; in assay [1] (10^-5 g/ml, frog number 3, read-out: Acceleration), 34.2%. Further, in assay [1] (Tables 1 and 3), the “Effect on ciliary movement of palatine mucosa” value is “acceleration of the ciliary movement of palatine mucosa in a certain dose-dependency”. For the same molecule, the “Ciliary movement promoting effect compared with acetylcholine” value in assay [1] (acetylcholine control at 10^-5 and 10^-4) is reported as “substantially the same ciliary movement promoting effect as the acetylcholine”.

Consider `CC(C)(C)NCC(O)c1cc(O)cc(O)c1` (stereo not shown) [terbutaline, 5-[2-[(1.1-dimetylethyl)amino]-1-hydoxyethyl]-1,3-benzenediole], for which the “Effect on rotary motion of the cilium cells” value in assay [3] (10^-3 to 3×10^-2 mg/ml) is “the rotary motion of the cilium cells is increased”. Further, the “Effect on rotary motion, time dependence” value in assay [3] (5 minutes after application, 10^-3 to 3×10^-2 mg/ml) is “particularly remarkable 5 minutes after the application”. In addition, the Effect on rotation result in assay [4] (10^-4 to 10^- mg/ml (so in the source)) is “general tendency of increase of the rotation”. For the same molecule, in assay [4] (5 min, 5 min after perfusion), the activation at 10 µg/mL was 18.6 ± 0.3%, the activation at 1 µg/mL was determined as 51.2 ± 36% and the activation at 0.1 µg/mL is -5.2 ± 12.2%. For the same molecule, in assay [4] (10 min, 10 min after perfusion), the activation at 10 µg/mL was found to be 24.8 ± 3.5%, the activation at 1 µg/mL is 37.2 ± 35.5% and the activation at 0.1 µg/mL is 1.6 ± 4.6%. In assay [4] (0.25 h, 15 min after perfusion), the activation at 10 µg/mL came to 2.7 ± 7.4%, the activation at 1 µg/mL turned out to be 42.1 ± 32.8% and the activation at 0.1 µg/mL was 6.7 ± 3%.

For the origin of these results see patent publication US4698332A, “Expectorant” (Mect Corporation, priority 1984, dated 1987).
